Each block holds one compound with its values, some of them ahead of it.
Key:
Experiment in all cases: Competitive isoTOP-ABPP in situ (fragment-treated cells)
Type in all cases: cell-based
[1] = biological target: cysteines in MDA-MB-231 and Ramos cells (Homo sapiens, UniProt Q15003)
[2] = biological target: cysteines in MDA-MB-231 and Ramos cells (Homo sapiens, UniProt O75150); details: 200 μM, insitu
[3] = biological target: cysteines in MDA-MB-231 and Ramos cells (Homo sapiens, UniProt Q00610); details: 200 μM, insitu, 231
[4] = biological target: T1, cysteines in MDA-MB-231 and Ramos cells (Homo sapiens, UniProt Q9NXJ5); details: 200 μM, insitu
T1 sequence (Q9NXJ5 1-209): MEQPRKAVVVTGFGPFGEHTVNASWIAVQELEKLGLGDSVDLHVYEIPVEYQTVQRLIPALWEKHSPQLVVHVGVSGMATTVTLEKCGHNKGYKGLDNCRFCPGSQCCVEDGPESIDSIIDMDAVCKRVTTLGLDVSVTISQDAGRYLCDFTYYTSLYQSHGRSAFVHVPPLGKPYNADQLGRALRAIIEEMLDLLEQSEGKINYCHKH

[5] = biological target: T2, cysteines in MDA-MB-231 and Ramos cells (Homo sapiens, UniProt Q8IYQ7); details: 200 μM, insitu, 231
T2 sequence (Q8IYQ7 1-743): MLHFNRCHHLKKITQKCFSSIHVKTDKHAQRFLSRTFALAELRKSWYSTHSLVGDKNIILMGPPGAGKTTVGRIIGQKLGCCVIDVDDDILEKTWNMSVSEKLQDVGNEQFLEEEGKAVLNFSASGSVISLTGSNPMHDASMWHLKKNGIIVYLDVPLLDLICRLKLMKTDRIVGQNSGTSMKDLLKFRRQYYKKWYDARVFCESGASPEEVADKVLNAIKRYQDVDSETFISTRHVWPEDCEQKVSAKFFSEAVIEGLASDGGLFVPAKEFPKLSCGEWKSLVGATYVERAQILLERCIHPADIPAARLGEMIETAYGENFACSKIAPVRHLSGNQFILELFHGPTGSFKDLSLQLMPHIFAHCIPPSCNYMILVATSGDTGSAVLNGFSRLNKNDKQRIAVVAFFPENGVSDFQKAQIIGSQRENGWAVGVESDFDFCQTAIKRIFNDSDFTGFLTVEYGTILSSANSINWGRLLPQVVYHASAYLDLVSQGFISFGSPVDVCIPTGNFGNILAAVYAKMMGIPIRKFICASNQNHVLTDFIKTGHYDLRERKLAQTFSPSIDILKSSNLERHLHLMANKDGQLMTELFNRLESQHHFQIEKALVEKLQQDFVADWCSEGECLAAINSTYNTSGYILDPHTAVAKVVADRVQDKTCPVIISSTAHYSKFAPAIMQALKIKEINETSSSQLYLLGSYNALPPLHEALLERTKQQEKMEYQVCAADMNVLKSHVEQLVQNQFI

[6] = biological target: cysteines in MDA-MB-231 and Ramos cells (Homo sapiens, UniProt Q8N999); details: 200 μM, insitu, 231
[7] = biological target: T3, cysteines in MDA-MB-231 and Ramos cells (Homo sapiens, UniProt Q9BTE3); details: 200 μM, insitu
T3 sequence (Q9BTE3 1-642): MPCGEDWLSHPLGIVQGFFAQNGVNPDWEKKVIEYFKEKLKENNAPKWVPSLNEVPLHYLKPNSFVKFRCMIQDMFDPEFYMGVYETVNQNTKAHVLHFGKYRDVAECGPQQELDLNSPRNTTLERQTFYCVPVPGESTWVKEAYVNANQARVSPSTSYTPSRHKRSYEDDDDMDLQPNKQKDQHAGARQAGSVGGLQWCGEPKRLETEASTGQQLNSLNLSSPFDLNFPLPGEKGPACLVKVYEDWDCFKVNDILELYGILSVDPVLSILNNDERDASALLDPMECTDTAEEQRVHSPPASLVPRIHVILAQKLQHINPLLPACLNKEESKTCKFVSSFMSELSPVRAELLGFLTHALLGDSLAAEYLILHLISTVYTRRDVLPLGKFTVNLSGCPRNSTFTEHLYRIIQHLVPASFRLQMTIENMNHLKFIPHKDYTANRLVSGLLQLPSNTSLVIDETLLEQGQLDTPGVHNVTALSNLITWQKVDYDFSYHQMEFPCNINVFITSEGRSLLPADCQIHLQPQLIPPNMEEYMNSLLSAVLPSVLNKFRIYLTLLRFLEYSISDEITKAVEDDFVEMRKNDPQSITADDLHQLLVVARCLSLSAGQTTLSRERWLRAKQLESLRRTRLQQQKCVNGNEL

Chain of cysteines in MDA-MB-231 and Ramos cells (Homo sapiens, UniProt Q8N999) (Q8N999 whole entry): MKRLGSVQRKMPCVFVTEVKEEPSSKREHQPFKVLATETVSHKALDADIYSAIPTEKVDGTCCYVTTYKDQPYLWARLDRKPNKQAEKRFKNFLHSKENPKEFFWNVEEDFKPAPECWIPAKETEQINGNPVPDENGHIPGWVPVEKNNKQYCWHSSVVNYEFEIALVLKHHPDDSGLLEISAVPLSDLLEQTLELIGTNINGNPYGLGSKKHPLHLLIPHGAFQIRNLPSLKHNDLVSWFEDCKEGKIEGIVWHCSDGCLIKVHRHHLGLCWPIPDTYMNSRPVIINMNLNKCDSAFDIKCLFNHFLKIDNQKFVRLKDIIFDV
Chain of cysteines in MDA-MB-231 and Ramos cells (Homo sapiens, UniProt O75150) (O75150 whole entry): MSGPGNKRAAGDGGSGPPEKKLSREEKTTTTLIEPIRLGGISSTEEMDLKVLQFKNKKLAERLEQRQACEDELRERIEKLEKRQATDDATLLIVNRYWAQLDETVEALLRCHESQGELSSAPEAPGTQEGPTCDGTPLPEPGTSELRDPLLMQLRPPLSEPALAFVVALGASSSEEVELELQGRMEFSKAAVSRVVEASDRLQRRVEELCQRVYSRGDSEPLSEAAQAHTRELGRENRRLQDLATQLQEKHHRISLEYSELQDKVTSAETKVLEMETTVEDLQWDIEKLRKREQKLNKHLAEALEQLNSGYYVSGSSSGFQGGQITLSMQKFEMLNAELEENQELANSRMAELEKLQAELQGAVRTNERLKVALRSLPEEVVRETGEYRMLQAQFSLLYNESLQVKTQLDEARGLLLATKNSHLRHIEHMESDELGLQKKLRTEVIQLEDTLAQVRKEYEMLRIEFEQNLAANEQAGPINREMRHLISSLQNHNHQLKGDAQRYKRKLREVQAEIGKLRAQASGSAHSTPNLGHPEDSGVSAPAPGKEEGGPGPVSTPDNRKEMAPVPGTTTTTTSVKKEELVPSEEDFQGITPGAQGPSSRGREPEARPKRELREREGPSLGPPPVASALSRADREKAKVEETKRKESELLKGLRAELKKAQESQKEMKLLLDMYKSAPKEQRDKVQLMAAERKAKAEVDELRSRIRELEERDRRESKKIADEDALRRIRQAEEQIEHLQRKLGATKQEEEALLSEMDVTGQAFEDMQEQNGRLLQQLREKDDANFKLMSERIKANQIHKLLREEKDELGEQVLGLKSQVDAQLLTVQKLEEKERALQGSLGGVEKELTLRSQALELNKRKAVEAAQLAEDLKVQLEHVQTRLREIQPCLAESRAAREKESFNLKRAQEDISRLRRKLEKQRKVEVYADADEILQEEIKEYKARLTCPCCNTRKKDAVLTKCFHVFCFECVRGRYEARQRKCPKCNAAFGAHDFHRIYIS
Chain of cysteines in MDA-MB-231 and Ramos cells (Homo sapiens, UniProt Q15003) (Q15003 whole entry): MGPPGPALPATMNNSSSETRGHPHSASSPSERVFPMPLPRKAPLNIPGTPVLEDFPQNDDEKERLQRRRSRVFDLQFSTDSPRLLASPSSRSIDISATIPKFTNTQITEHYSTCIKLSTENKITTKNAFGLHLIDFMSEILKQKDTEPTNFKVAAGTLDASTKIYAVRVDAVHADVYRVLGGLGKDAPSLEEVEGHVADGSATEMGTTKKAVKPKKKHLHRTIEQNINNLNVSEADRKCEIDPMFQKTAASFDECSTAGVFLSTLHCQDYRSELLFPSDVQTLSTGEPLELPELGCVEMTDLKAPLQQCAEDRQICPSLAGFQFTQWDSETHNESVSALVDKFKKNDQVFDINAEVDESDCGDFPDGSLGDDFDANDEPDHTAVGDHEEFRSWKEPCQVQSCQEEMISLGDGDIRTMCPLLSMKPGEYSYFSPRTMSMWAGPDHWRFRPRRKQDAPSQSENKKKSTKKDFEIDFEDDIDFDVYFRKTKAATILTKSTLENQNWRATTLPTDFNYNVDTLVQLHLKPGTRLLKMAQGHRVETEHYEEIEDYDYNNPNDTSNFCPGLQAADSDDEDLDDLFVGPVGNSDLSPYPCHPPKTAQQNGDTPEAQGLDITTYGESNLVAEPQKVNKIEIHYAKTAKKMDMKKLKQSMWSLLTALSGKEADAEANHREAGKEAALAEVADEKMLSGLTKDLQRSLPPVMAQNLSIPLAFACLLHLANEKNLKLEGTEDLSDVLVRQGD
Chain of cysteines in MDA-MB-231 and Ramos cells (Homo sapiens, UniProt Q00610) (Q00610 whole entry): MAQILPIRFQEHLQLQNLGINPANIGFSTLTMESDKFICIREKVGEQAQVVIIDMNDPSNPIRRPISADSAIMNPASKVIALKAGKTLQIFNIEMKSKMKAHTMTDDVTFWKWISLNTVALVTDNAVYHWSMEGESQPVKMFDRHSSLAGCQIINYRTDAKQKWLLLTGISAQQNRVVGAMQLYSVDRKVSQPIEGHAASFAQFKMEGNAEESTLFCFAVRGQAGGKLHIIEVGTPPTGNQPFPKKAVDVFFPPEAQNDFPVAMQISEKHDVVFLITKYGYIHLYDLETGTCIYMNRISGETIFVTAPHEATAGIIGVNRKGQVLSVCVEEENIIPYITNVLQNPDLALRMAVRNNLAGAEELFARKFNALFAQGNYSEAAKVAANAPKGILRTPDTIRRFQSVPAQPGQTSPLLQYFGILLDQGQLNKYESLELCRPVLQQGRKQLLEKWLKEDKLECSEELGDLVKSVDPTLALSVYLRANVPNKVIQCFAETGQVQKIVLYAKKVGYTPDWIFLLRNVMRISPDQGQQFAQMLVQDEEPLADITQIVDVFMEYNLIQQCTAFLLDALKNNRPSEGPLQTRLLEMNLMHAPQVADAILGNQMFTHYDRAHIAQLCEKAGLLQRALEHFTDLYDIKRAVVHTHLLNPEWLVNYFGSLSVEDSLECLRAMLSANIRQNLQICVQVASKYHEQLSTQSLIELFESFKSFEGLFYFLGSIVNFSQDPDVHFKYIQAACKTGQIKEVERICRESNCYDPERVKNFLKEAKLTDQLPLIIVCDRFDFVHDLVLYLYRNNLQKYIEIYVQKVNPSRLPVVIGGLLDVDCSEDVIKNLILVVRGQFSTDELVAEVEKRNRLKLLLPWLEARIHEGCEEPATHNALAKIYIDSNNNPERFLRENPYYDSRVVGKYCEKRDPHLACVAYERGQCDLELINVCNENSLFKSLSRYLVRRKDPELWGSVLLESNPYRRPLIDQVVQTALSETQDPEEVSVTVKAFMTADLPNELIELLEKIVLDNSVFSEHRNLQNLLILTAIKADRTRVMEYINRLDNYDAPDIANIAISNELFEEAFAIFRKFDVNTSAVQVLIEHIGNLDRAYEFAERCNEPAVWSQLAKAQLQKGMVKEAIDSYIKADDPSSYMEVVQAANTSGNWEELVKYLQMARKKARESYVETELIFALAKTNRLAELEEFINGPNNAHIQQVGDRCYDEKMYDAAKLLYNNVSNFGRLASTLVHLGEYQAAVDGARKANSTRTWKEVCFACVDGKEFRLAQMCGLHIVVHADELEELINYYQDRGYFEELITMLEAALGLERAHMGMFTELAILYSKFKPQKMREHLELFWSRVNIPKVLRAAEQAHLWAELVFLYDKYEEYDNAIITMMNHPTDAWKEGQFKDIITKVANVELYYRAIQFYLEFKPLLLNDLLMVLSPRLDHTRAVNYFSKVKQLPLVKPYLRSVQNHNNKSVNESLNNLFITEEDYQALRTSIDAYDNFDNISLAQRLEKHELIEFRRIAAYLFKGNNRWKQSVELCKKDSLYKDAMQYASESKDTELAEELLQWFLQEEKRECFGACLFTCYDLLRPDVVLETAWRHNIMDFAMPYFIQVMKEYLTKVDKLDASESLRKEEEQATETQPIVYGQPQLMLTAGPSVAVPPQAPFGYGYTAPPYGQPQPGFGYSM

isoTOP-ABPP reactivity Q15003_C418 NCAPH ([1]; 200 μM, insitu, 231): 20.0
Compound: COc1ccc2c(c1)CCCN2C(=O)CCl [compound 2]

isoTOP-ABPP ratio O75150_C890 [2]; 231: 1.2
Compound: CC(C)CCOCCNC(=O)CCl [compound 27]

isoTOP-ABPP ratio, cysteine O75150_C890 [2]; 231: 1.1
isoTOP-ABPP ratio, cysteine Q00610_C870 [3]: 0.9
isoTOP-ABPP ratio, cysteine Q9NXJ5_C149 [4]; 231: 3.9
Compound: O=C(CCl)NC(=O)NC12CC3CC(CC(C3)C1)C2 [compound 12]

isoTOP-ABPP ratio, cysteine Q8IYQ7_C324 [5]: 2.0
Compound: O=C(CCl)NC12CC3CC(CC(C3)C1)C2 [compound 21]

isoTOP-ABPP ratio, cysteine O75150_C890 ([2]; ramos): 4.2
isoTOP-ABPP ratio, cysteine Q8IYQ7_C324 [5]: 5.3
isoTOP-ABPP ratio, cysteine Q9NXJ5_C149 ([4]; ramos): 11.0
Compound: O=C(CCl)N1CCN(S(=O)(=O)c2ccccc2F)CC1 [compound 10]

isoTOP-ABPP ratio O75150_C890 [2]; 231: 1.3
isoTOP-ABPP ratio Q8N999_C302 [6]: 0.3
isoTOP-ABPP ratio Q9BTE3_C325 [7]; 231: 0.6
Compound: Cc1ccc(C=C(C#N)C(=O)NCCN2CCOCC2)cc1 [compound 41]

isoTOP-ABPP ratio, cysteine Q15003_C418 ([1]; 100 μM in situ 231): 1 .6
Compound: Cn1cc(S(=O)(=O)N2CCOCC2)cc1C(=O)NC(=O)CCl [compound 11]

isoTOP-ABPP ratio Q8N999_C302 [6]: 0.6
isoTOP-ABPP ratio Q9BTE3_C325 [7]; 231: 1.0
Compound: COc1ccccc1OCCNC(=O)CCl [compound 28]

isoTOP-ABPP ratio Q15003_C418 ([1]; 200 μM, insitu, 231): 20.0
isoTOP-ABPP ratio Q8N999_C302 [6]: 20.0
isoTOP-ABPP ratio Q9BTE3_C325 [7]; 231: 20.0
Compound: CC1CCc2ccccc2N1C(=O)CCl (stereo not drawn) [compound 45]

isoTOP-ABPP ratio Q00610_C870 [3]: 20.0
isoTOP-ABPP ratio Q9BTE3_C325 [7]; 231: 2.2
Compound: C=CC(=O)Nc1cc(F)c(N2CCN(C(=O)OC(C)(C)C)CC2)c(F)c1 [compound 38]

isoTOP-ABPP reactivity Q8IYQ7_C324 THNSL1 [5]: 20.0
Compound: COc1cc2c(cc1OC)CN(C(=O)CCl)CC2 [compound 8]

isoTOP-ABPP ratio O75150_C890 [2]; 231: 0.7
isoTOP-ABPP ratio Q9BTE3_C325 [7]; 231: 1.9
isoTOP-ABPP ratio Q9BTE3_C325 ([7]; ramos): 3.5
Compound: C=CC(=O)N(Cc1cccnc1)c1cc(C(F)(F)F)cc(C(F)(F)F)c1 [compound 31]

isoTOP-ABPP ratio, cysteine Q00610_C870 [3]: 1.7
isoTOP-ABPP ratio, cysteine Q8IYQ7_C324 [5]: 1.3
isoTOP-ABPP ratio, cysteine Q9NXJ5_C149 ([4]; ramos): 20.0
Compound: O=C(CCl)NCCc1c[nH]c2ccccc12 [compound 13]

isoTOP-ABPP reactivity Q8IYQ7_C324 THNSL1 [5]: 1.6
Compound: O=C(CCl)N1CCC(Cc2ccccc2)CC1 [compound 9]

isoTOP-ABPP reactivity Q15003_C418 NCAPH ([1]; 100 μM in situ 231): 20.0
Compound: COc1ccc(C2CC(c3cccs3)=NN2C(=O)CCl)cc1 (stereo not drawn) [compound 4]

isoTOP-ABPP ratio Q15003_C418 ([1]; 200 μM, insitu, ramos): 1.4
Compound: O=C(CCl)N1CCN(CC(=O)N2CCOCC2)CC1 [compound 29]
